Measurements reported in patent publication US20060111388A1, “Phenanthroline and derivatives thereof used to lower intraocular pressure in an affected eye” (University of North Texas Health Science Center at Fort …, priority 2004, published 2006).
pKi: −log10 of the molar value. Values belong to the compound of their own block, whether it stands above or below them.

Columns and labels:
[1] = tested on: Morrison rat model eye with elevated intraocular pressure; assay: Morrison rat model for glaucoma, IOP by tonometer after topical application; assay type: in vivo
Source text: The Intraocular Pressure (“IOP”) in a rat eye was lowered following treatment of the eye with about a 1% (w/v) phenanthroline solution. Briefly, the IOP was elevated in one eye for rats grouped as specified below by using the method as described by Morrison et al (1997). […] The other eyes was used as a control. Rats were housed post-surgically in constant low light (<90 lux) to minimize effects of circadian influences on IOP. Five rats were used per treatment group.
A solution of 1,7-phenanthroline was prepared by dissolving 10 mg of 1,7-phenanthroline in 32 μl methanol (100%) forming a concentrated 1,7-phenanthroline solution. About 3 μl of the concentrated 1,7-phenanthroline solution was then added to 96 μl of saline (0.9% NaCl) to form a working 1,7-phenanthroline solution. The working 1,7-phenanthroline solution was then used in the eye of the Morrison Model of Glaucoma. The average intraocular pressure (IOP) in Morrison model eye was 26.22 (average of nine readings) prior to application of the working 1,7-phenanthroline solution. In contrast, the IOP measured 6 hr after application of the working 1,7-phenanthroline solution dropped to 25.66, as shown in FIG. 6A.
(§1) A solution of 4,7-dihydroxy-1,10-phenanthroline was prepared by dissolving 7 mg of 4,7-dihydroxy-1,10-phenanthroline in 22 μl methanol, 30 μl 1 N NaOH, and 626 μl of saline (0.9% NaCl) forming a 4,7-dihydroxy-1,10-phenanthroline solution having a pH of about 10.42. […] The 4,7-dihydroxy-1,10-phenanthroline solution was centrifuged at 10,000×g for about 5 min to remove the precipitate. The clear supernatant was removed and used for testing the Morrison model eye. The average intraocular pressure (IOP) in the eye with elevated pressure was 27.77 (average of nine readings) prior to application of the drug.
(§2) A solution of 1,10-phenanthroline 5,6-dione was prepared by dissolving 7 mg of 1,10-phenanthroline 5,6-dione in 44 μl methanol, and 88 μl dimethylsulfoxide (DMSO). […] The 1,10-phenanthroline 5,6-dione solution with precipitate was centrifuged at 10,000×g for 5 min, and the clear supernatant was removed. 6 μl of the supernatant plus 97 μl of saline formed the working solution used in the Morison model of glaucoma. The average intraocular pressure (IOP) in eye with elevated pressure was 27.66 (average of nine readings) prior to application of the drug.

[2] = Solubility observed while preparing the test solution; assay type: physicochemical
Protocol: as §1, §2

[3] = tested on: patients; details: patients treated with latanoprost; cited from earlier work
[4] = biological target: T1, thermolysin (Bacillus thermoproteolyticus, UniProt P00800); details: reversible inhibitor; cited from earlier work
T1 sequence (P00800 233-548): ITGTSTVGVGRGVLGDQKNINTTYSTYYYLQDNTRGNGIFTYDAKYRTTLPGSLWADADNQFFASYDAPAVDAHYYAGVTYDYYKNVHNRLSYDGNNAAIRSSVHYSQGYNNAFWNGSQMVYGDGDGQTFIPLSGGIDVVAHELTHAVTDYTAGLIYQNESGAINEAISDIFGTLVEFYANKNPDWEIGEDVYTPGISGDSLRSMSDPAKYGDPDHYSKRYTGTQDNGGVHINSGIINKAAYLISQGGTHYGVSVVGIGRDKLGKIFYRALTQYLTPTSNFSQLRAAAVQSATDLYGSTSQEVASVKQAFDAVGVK

Structure (SMILES): c1cnc2c(c1)ccc1ncccc12 [1,7-phenanthroline]
IOP measured 6 hr after application (FIG. 6A) ([1]; working solution: 10 mg in 32 μl methanol, 3 μl added to 96 μl saline, average IOP 26.22 (nine readings) prior to application): 25.66

solubility in methanol and DMSO ([2]; 7 mg in 44 μl methanol and 88 μl dimethylsulfoxide): the entire drug was not solubilized
Structure (SMILES): O=C1C(=O)c2cccnc2-c2ncccc21 [1,10-phenanthroline 5,6-dione]
IOP measured 6 hr after application (FIG. 6C) ([1]; 6 μl supernatant (7 mg in 44 μl methanol, 88 μl DMSO) plus 97 μl saline, average IOP 27.66 (nine readings) prior to application): 25.44

solubility on adjusting solution from pH about 10.42 to pH 7.7 ([2]; 7 mg in 22 μl methanol, 30 μl 1 N NaOH, 626 μl saline, 1N HCl): some precipitation of the drug
Structure (SMILES): Oc1ccnc2c1ccc1c(O)ccnc12 [4,7-dihydroxy-1,10-phenanthroline]
IOP measured 6 hr after application (FIG. 6B) ([1]; clear supernatant of 7 mg in 22 μl methanol, 30 μl 1 N NaOH, 626 μl saline, adjusted to pH 7.7, average IOP 27.77 (nine readings) prior to application): 26.22

Structure (SMILES): CC(C)OC(=O)CCC/C=C\C[C@@H]1[C@@H](CC[C@@H](O)CCc2ccccc2)[C@H](O)C[C@@H]1O [latanoprost, Latanoprost]
increased iris pigmentation, share of patients [3]: up to one in six

Structure (SMILES): c1cnc2c(c1)ccc1cccnc12 [phenanthroline, 1,10-phenanthroline]
intraocular pressure (FIG. 4) ([1]; 1% (w/v) in saline, 20-25 μl topically once, 22 and 27 days following surgery, cohort 2-4-04, IOP measured after 1 hour and 6 hours): decreased
intraocular pressure (FIG. 5) ([1]; 1% phenanthroline, 27 days following surgery, ID#1-17-48 in cohort 2-4-04): decreased
pKi [4]: 4.40
